The source of these data is patent US8207361B2, “Tigecycline crystalline forms and processes for preparation thereof” (Teva Pharmaceutical Industries Ltd., priority 2006, dated 2012).

The series is described as follows: Exposure of crystalline form to about 100% room humidity, crystal form monitored by XRD. It is filed as physicochemical. The note with it: after exposure to about 100% RH for about 7 days at about room temperature, Form I prepared from ethyl acetate (about 80 mg). From the text:
A round aluminum sample holder with zero background was used.

In the case of `CN(C)c1cc(NC(=O)CNC(C)(C)C)c(O)c2c1C[C@H]1C[C@H]3[C@H](N(C)C)C(O)=C(C(N)=O)C(=O)[C@@]3(O)C(O)=C1C2=O` [Form I, (4S,4aS,5aR,12aS)-9-(2-(tert-butylamino)acetamido)-4,7-bis(dimethylamino)-1,4,4a,5,5a,6,11,12a-octahydro-3,10,12,12a-tetrahydroxy-1,11-dioxo-2-naphthacenecarboxamide], the Crystal form entry is recorded as “Amorphous”.
